Measurements: patent US11351130B2, “Prevention and reversal of inflammation induced DNA damage” (Indiana University Research and Technology Corporation, priority 2017, dated 2022)

How the values were obtained:
[1] = Pharmacokinetics (PK); conditions: in vivo
Method: (§1) PK studies were performed in the IU Simon Cancer Center Clinical Pharmacology Analytical Core (CPAC), as previously described for E3330 (Fishel et al., 2011) and standards for the compounds used. P450 metabolism studies using human microsomes were also performed in CPAC directed by Dr. David Jones.

[2] = P450 metabolism analysis using human microsomes; format: in vitro ADME; conditions: human
Method: as §1

[3] = tested on: sensory neuronal cultures; test: Neuronal cell viability (trypan blue exclusion); format: cell-based
Method: Primary cultures of sensory neurons were harvested and maintained as previously described (Vasko et al., 2005). Briefly, adult male Sprague-Dawley rats (150-175 g; Harlan, Indianapolis, Ind.) were euthanized by CO2 asphyxiation and dorsal root ganglia (DRG) dissected from all spinal levels, transferred to into a collagenase solution (1 mg/ml), incubated for 1 hour at 37° C., then dissociated by mechanical agitation. Approximately 30,000 cells or 60,000 cells were plated into each well of 12-well or 6-well culture plates, respectively. All culture dishes were precoated with poly-D-lysine and laminin. Cells were maintained in F-12 media supplemented with 10% horse serum, 2 mM glutamine, 100 μg/ml Normocin™, 50 μg/ml penicillin, 50 μg/ml streptomycin, 50 μM 5-fluoro-2′-deoxyuridine (Invitrogen), 150 μM uridine, and 30 ng/ml of NGF in 3% CO2 at 37° C. Growth medium was changed every other day. Experiments were performed after cells were maintained in culture for 12-14 days.
Sensory neuronal culture trypan blue exclusion analysis was performed as previously described (Vasko et al., 2011). Cells were detached by adding a 0.05% trypsin-EDTA solution and media to each well. An equal volume of 0.4% (w/v) trypan blue in PBS was added to the cell suspension and the numbers of living cells (i.e., those that exclude the dye) were counted under a phase contrast microscope using a hemacytometer. Percent survival was calculated as the percent of live cells divided by the total cell number (including dead and live cells).

[4] = tested on: neuronal cultures derived from DRG; test: CGRP release from DRG neuronal cultures (Example 1); format: cell-based, rat
Method: Dorsal root ganglia (DRG) were dissected from all spinal levels of adult male (150-175 g) Sprague-Dawley rats (Envigo, Indianapolis, Ind.) and the cells were dissociated as previously described (Kelley et al., 2014). Briefly, the rats were euthanized by CO2 asphyxiation. DRGs were transferred into collagenase solution (1 mg/ml) and incubated for 1 hour at 37° C. The digested DRGs were then rinsed with growth medium, centrifuged and dissociated by mechanical agitation. Approximately 30,000 cells were plated into each well of 12-well culture plates. All culture dishes were precoated with poly-D-lysine and laminin. Cells were maintained in F-12 media supplemented with 10% horse serum, 2 mM glutamine, 100 μg/ml Normocin, 50 μg/ml penicillin, 50 μg/ml streptomycin, 50 μM 5-fluoro-2′-deoxyuridine, 150 μM uridine, and 30 ng/ml of NGF in 3% CO2 at 37° C. Growth medium was changed every other day.
Small interfering RNAs to APE1 (APE1siRNA) and scrambled siRNA (SCsiRNA) controls were used to decrease APE1 protein expression in sensory neuronal cell cultures and as controls, respectively, as described previously (Vasko et al., 2005, Jiang et al., 2008a). On day 3 in culture, the growth media was replaced with 0.5 ml of Opti-MEM 1 media containing 100 nM of APE1siRNA (5′-[…]-3′ (SEQ ID NO:1)) or SCsiRNA (5′-[…]-3′(SEQ ID NO:2)); (Vasko et al., 2005)) and 10 μl of the transfecting reagent, Neuroporter. On the next day, 0.5 ml of the growth media without antibiotics was added to each well, and after an additional 24 hours the media containing siRNA was replaced with normal growth media.
Lentiviral constructs containing (1) the CMV promoter, HA-tagged APE1, IRES, and enhanced green fluorescent protein (EGFP); or (2) CMV, IRES, and EGFP were developed. DNA sequencing confirmed the constructs in the pLenti6-R4R2-V5 plasmid containing WT-, C65-, or 226+177-APE1-IRES-EGFP. For lentiviral infections, DRG cells were cultured 5 days before 150 pfu/cell of the lentivirus was added to the media. Two days later, the virus was removed and the cells grown an additional 5 days in regular media.
After neuronal cultures were treated with the appropriate drugs, the cultures were washed once with HEPES buffer consisting of (in mM) 25 HEPES, 135 NaCl, 3.5 KCl, 2.5 CaCl2, 1 MgCl2, 3.3 D-glucose, and 0.1% bovine serum albumin, pH 7.4 and maintained at 37° C. They were then incubated for successive 10-minute intervals with 0.4 ml of HEPES buffer alone (basal release), with buffer containing 30 nM capsaicin, then with buffer alone (to assess return to basal release). After each incubation, the buffer was removed and the amount of immunoreactive CGRP in each sample was measured using radioimmunoassay as previously described (Chen et al., 1996). After the release experiment, the cells in each well were in 0.4 ml of 0.1 M HCl10 minutes and an aliquot taken to measure total CGRP content in the cultures using radioimmunoassay. Total content (fmol/well) was calculated by adding the total amount released in all incubations to the amount measured in the cells. The release data is calculated as fmol released/well/10 minutes.

Compound: CCCCCCCCC/C(=C\C1=C(C)C(=O)C(OC)=C(OC)C1=O)C(=O)O [APX3330]
- half-life [1]: 3.6 h
- half-life [2]: 0.333 h
- effect on cisplatin-induced cell death ([3]; 20 μM for 48 hours prior to and throughout the cisplatin treatment (24 hours)): blocked
- cell death / cell viability, drug alone ([3]; 24 hours, E3330 10, 20 or 40 μM, APX2009 various concentrations): no significant cell death
- effect on MCP-1-induced change in CGRP release ([4]; E3330, MCP-1 0.3 μg/ml): prevented the change in CGRP release induced by MCP-1 exposure
- stimulated release of CGRP in LPS-treated cultures ([4]; SCsiRNA-treated cultures, LPS 3 μg/ml 24 hours plus APE1 expression or E3330): 9.7±0.8 % of total content
